Assay results taken from patent publication US20180110711A1, “METHOD OF ENHANCING HAIR GROWTH” (Allergan, Inc., priority 2011, published 2018).

Legend:
[1] = tested on: mouse model for hair growth; experiment: Mouse model for hair growth, Study 10-04 (Test One); format: in vivo; conditions: compared with vehicle or single agents
Description: A comparison of topical compositions comprising bimatoprost or minoxidil, alone, and the combination of bimatoprost and minoxidil, in a single composition, with the vehicle, for onset of hair growth and full hair growth, in a mouse model for hair growth, gave the results summarized in Table 1, below, and FIG. 5.

[2] = tested on: mouse model of hair growth; experiment: Mouse model of hair growth, Study 10-06 (Test Two); format: in vivo
Description: FIGS. 6 through 8 show the results of a separate testing (Test Two) of synergistic composition of the invention in the same mouse model of hair growth, with FIG. 6 being the Vehicle, FIG. 7 being 0.03% Bimatoprost, alone, and FIG. 8 being the synergistic composition, i.e. 0.03% Bimatoprost and 5% Rogaine (minoxidil).

Nc1cc(N2CCCCC2)nc(N)[n+]1[O-] [MINOXIDIL 5%, minoxidil]
full hair growth (in words, comparison) [1]: did not obtain the result of full hair growth faster then the vehicle | onset of hair growth (in words, comparison) [1]: faster onset of hair growth

CCNC(=O)CCC/C=C\C[C@@H]1[C@@H](/C=C/[C@@H](O)CCc2ccccc2)[C@H](O)C[C@@H]1O [BIMATOPROST 0.03%, cyclopentane N-ethyl heptanamide-5-cis-2-(3α-hydroxy-5-phenyl-1-trans-pentenyl)-3,5-dihydroxy, [1α,2α,3α,5α]]
full hair growth (in words, comparison) ([2]; compared with vehicle): did not obtain the result of full hair growth faster then the vehicle | onset of hair growth (in words, comparison) ([2]; compared with vehicle or bimatoprost alone): faster onset of hair growth | full hair growth (in words, comparison) [1]: did not obtain the result of full hair growth faster then the vehicle | onset of hair growth (in words, comparison) [1]: faster onset of hair growth
